The text below walks through data of patent US4665086A, “Method for minimizing disturbances in circadian rhythms of bodily performance and function” (priority 1983, dated 1987).

The structures appear in SMILES notation. “Also recorded” adds a separate entry of the source. Where two headings read alike, the source gives them in different places.

The subject of series [1] is circadian rhythms in humans (jet lag). Kind of series: Example 2: Subject A, flight Melbourne-Munster-Melbourne, melatonin at local bedtime. It counts as in vivo, human. Conditions: 5 mg oral capsule. The text has this: |Flight from Melbourne → Munster, W. Germany → Melbourne. |Details of activity schedule, sleeping time, melatonin administration. As in Example 1, Subject A took melatonin packaged in a gelatine capsule.

For series [2] the test system is unchanged. In kind it is in vivo, human. As for the experimental part:
Subject D Flight from Melbourne→London→Edinburgh→London→Melbourne 23.3.84-2.4.84 The subject, a Clinical Professor who had never taken Melatonin before, was given gelatin capsules containing 5 mg Melatonin and instructed to take one capsule on going to bed in the evening (local time) after arrival at their destination, and to take a further capsule if they awoke in the night.

The test system is the same in series [3]. Kind of series: Example 8: Subject E, flight London-Melbourne. It counts as in vivo, human. To be noted: 5 mg at bedtime; for symptoms of jet-lag: Easterly flight London-Melbourne. From the text: Subject E Flight from London→Melbourne→London 30.12.83-16.1.84
In series [4] the test system is body temperature rhythm in humans (shift work). Put plainly: Example 10: Subject F, simulated rapid rotating shift work roster, double blind melatonin vs placebo, rectal temperature. Conditions: for sleep induction: from diary descriptions. In kind it is in vivo, human. The procedure:
The subject was a […] psychology lecturer who had never taken Melatonin before. In order to evaluate the effects of Melatonin on adaptation to rotating shift work conditions the subject undertook three, eight hour phase advances in their sleep-wake/work-rest schedule at six day intervals. Melatonin was administered under double blind conditions on the first phase advance and placebo taken on the second. […] This entrainment was not a secondary consequence of sleep induction. The data can be taken as evidence for Melatonin as an effective chronobiotic for adaptation to shiftwork.
The experiment was designed to incorporate the salient features of a rapidly rotating shift-work schedule combined with aspects of lighting changes encountered on destination arrival after intercontinental jet flight. […] The experimental protocol differed from that normally found in shift work in that the subject had to spend the dark period in bed in an isolation unit irrespective of whether sleepiness was felt or not; whereas, no sleep was allowed during the light period no matter how tired the subject felt. During the light period the subject was free to leave the isolation unit to engage in work or leisure related activities.
The experiment was carried out over the long vacation, the isolated unit being situated half below ground under one of the residential colleges on La Trobe University Campus. The area was, therefore, fairly well buffered against external noise and a ventilation exhaust fan was continuously running, which aided extraneous noise reduction. Windows located high up on the walls of the kitchen alcove and shower/toilet rooms were blacked out. The main sleeping-living room was illuminated by two fluorescent tubes (40 watt) while the alcove and bathroom areas had one, 40 watt, fluorescent light in each. All lights were controlled by a single time clock set to give an LD 16:8 cycle, lights on at 0730 hours during baseline. A bedside lamp was used for reading during the light period. No lighting was allowed during the dark period for any reason. Therefore, events such as quenching of thirst and urination had to take place in total darkness. Temperature of the isolation area was maintained within the range 20°-22° C. throughout the experiment. During stage A and pre-baseline breakfast was ingested between 0800 and 0900, lunch between 1300 and 1400, and dinner between 1800 and 2000. During stages B and C meals and intermeal intervals were scheduled for equivalent times (relative to lights on) to those during stage A.
During stages B and C the subject was instructed to take one capsule just prior to lights off. If still awake one hour later, the subject was to take a second capsule. Similar instructions applied to the second and third hours after lights-off but no capsule was to be taken during the last four hours of darkness i.e. maximum number of capsules to be taken was four. Capsules were refrigerated and had to be taken in complete darkness once lights were off. A double blind procedure was employed with stage B being drug (Melatonin, Sigma, 5mg/capsule) and stage C being placebo (sucrose filled capsule). No capsules were taken on the final dark period at the end of each stage i.e. days 10 and 16.
Rectal temperature was sampled every 12 minutes using a Vitalog PMS 8 portable microcomputer. A diary of life events was kept. These included details of sleep, work, leisure, meals, beverages, urination and defecation. […]

The test system of the next series is human subjects. Conditions: pharmacological doses; cited from earlier work.
Series [5] relates to hamsters, sheep, ferrets and deer. To be noted: physiological doses by mouth, implant or injection; cited from earlier work.

As for `COc1ccc2[nH]cc(CCNC(C)=O)c2c1` [melatonin, 5-methoxy-N-acetyltryptamine], the “sleep after taking melatonin (diary, comment)” value in series [1] is “sleep well following both Westerly and Easterly flights”; in series [1] (listed as Melatonin), “fell asleep; also recorded: slept deeply; also recorded: good sleep; also recorded: slept very well; also recorded: slept well”. The “symptoms of jet lag (comment)” value in series [1] (8-hour time zone change) was “no symptoms of jet lag apart from tiredness on the second day after their return to Melbourne”. In addition, in series [1] (listed as Melatonin), the “feeling on awakening / during day after melatonin sleep (diary)” value was “Felt fresh and rested, much less tired; also recorded: feeling excellent; also recorded: feeling fine; also recorded: feeling good; also recorded: felt fresh and rested; also recorded: Felt tired during the day; also recorded: hangover”. Besides, the “sleep after taking melatonin” value in series [2] (Subject D, 5 mg (5+5 mg on Bombay-London leg), listed as Melatonin) is listed as “did not induce sleep when taken on the outward journey”; in series [3] it was “slept well”; in series [3] (listed as Melatonin), “excellent night's sleep”. In addition, the “napping during daytime meeting talks” value in series [2] (Subject D, much less than when using Mogadon) was “napped minimally”. Moreover, the “effects of discontinuing melatonin” value in series [2] (human, in vivo) was “no adverse effects”. Further, the figures for the symptoms of jet-lag entry in series [3] and in series [3] (listed as Melatonin) were “no signs of jet-lag on the 3rd day” and “no symptoms of jet-lag; also recorded: appeared to prevent all symptoms of jet-lag”, respectively. Besides, in series [4] (Subject F, 22.1.84, first complete day after first phase shift, capsule taken 1515), the “time to fall asleep after lights out (diary, Table 2)” value is listed as “approx. 30 minutes”. In series [4] (Subject F, first 8 hour advance of darkness), the “time by which temperature rhythm was re-established and in phase with the new light-dark cycle” value is listed as “by the third complete day after the phase shift (day 8)”. Besides, the “entrainment of body (rectal) temperature rhythm” value in series [4] (Subject F, first 8 hour phase advance, 5 mg/capsule before lights off, double blind, contrast to placebo) was “good and accelerated entrainment of the body temperature rhythm; also recorded: phase shifted the rectal temperature rhythm”. For the same molecule, the sleep induction result is recorded as “did not have the same potent sleep induction as reported by other subjects after intercontinental flight” in series [4] (Subject F) and “aided sleep induction” in series [4] (Subject F, listed as Melatonin). Besides, in the series with human subjects, the effect on sleep result was “induces drowsiness and sleep”. In addition, the “timing of the annual breeding season” value in series [5] was “capable of altering the timing of the annual breeding season”.
